Like-named read-outs stand apart in the source and are kept apart here.
Legend:
PLK4 = biological target: T1, PLK4 (Homo sapiens, UniProt O00444); experiment: biochemical; design: 33PanQinase radiometric kinase activity assay, residual activity in % of control, contract lab Reaction Biology; conditions: mean of intraexperimental duplicates, n = 1
T1 sequence (O00444 1-970): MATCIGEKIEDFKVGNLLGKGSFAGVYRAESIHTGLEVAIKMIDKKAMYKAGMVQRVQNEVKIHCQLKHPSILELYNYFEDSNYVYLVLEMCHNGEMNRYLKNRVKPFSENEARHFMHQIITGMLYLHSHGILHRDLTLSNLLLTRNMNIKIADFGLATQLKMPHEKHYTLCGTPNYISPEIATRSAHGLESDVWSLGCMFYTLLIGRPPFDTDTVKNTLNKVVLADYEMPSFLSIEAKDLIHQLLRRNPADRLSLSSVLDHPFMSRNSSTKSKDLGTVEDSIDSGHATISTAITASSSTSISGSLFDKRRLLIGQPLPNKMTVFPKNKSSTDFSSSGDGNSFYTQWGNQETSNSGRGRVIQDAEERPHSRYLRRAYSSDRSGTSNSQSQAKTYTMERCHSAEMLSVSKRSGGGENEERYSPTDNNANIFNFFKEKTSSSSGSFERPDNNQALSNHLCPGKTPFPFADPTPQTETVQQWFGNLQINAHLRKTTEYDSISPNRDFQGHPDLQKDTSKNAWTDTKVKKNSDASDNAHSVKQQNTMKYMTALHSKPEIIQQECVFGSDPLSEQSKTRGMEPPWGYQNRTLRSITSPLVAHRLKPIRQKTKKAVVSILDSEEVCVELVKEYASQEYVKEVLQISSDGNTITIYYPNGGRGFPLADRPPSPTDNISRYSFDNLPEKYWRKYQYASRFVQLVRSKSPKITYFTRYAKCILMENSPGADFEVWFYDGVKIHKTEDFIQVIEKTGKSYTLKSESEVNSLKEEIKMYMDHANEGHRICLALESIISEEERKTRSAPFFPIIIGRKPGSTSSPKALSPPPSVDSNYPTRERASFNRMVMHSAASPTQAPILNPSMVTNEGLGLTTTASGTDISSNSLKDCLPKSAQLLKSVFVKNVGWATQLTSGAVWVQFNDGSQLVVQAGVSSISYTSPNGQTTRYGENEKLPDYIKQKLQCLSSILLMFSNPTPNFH
Protocol: (§1) Kinase Screening was performed at Reaction Biology (Freiburg, Germany) by using the ^33PanQinase Assay.^[ [90] ^] Based on this knowledge, we commissioned a kinase screening by the firm Reaction Biology, targeting those kinases whose inhibition has shown an indirect effect on microtubules. In our selection, we included additional kinases that are known to be involved in centrosome amplification (PLK4^[ [82] ^]), centrosome clustering (CDK1/2,^[ [83] ^] PLK1^[ [84] ^]), spindle multipolarity (SRC^[ [85] ^]), microtubule dynamics (AKT1^[ [86] ^]), and LIMK1/2 activation (ROCK1^[ [87] ^]) or are crucial for the mitosis (BUB1B, NEK2/9, WEE1^[ [88] ^]). Nonetheless, 1(R) and 1(S) at 10 µM had almost no inhibitory effects on any of the chosen kinases (Table 4 ). Only Aurora A (mean residual activity for 1(R): 86%, 1(S): 98%) and ASK1 (mean residual activity for 1(R): 90%, 1(S): 117%) were slightly enantioselectively impacted. However, we theorize that those marginal inhibitions are not explanatory for the antiproliferative and morphological effects of 1(R) on cancer cells.

NEK9 = biological target: T2, NEK9 (Homo sapiens, UniProt Q8TD19); experiment: biochemical; design: 33PanQinase radiometric kinase activity assay, residual activity in % of control, contract lab Reaction Biology; conditions: mean of intraexperimental duplicates, n = 1
T2 sequence (Q8TD19 1-979): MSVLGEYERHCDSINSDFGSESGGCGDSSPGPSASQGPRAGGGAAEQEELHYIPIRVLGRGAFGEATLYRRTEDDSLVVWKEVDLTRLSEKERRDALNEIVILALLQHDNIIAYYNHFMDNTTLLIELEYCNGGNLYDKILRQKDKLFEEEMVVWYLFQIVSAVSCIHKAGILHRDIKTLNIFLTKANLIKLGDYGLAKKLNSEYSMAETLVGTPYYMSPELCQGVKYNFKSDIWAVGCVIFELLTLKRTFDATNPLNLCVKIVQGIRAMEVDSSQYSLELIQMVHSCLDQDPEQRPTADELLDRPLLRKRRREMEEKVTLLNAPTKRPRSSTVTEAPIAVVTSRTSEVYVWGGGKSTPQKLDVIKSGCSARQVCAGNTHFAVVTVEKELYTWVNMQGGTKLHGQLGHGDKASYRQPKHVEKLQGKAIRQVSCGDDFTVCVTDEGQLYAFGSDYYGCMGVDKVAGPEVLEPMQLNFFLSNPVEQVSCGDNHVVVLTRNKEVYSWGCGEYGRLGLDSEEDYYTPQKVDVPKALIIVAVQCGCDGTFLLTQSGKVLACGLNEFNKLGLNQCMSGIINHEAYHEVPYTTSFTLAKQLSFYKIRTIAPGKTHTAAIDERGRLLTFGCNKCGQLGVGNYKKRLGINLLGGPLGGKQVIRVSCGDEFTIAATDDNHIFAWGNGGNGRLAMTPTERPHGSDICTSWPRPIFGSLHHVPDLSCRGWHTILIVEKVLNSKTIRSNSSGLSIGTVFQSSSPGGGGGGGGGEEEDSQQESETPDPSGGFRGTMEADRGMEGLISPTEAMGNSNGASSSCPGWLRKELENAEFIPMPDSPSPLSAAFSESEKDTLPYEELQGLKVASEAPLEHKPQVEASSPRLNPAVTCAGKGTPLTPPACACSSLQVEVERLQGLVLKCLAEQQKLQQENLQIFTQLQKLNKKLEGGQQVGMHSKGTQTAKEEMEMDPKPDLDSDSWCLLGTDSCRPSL
Protocol: as §1

[1] = read-out: Residual activities [% of control] / 1(R) 10 µM
[2] = read-out: Residual activities [% of control] / 1(S) 10 µM

remaining activity at 10 µM (PLK4; [1])	remaining activity at 10 µM (PLK4; [2])	Compound	remaining activity at 10 µM (NEK9; [1])	remaining activity at 10 µM (NEK9; [2])
97%	–	Nc1ccc2ccccc2c1-c1c(N)ccc2ccccc12 [1(R), (R)‐[1,1′‐binaphthalene]‐2,2′‐diamine]	94%	–
–	99%	Nc1ccc2ccccc2c1-c1c(N)ccc2ccccc12 [1(S), S‐BINAM]	–	96%

Source: PMC12503911, “Cytotoxicity of Atropisomeric [1,1′‐Binaphthalene]‐2,2′‐Diamines (BINAM) and Analogs in Human Cancer Cells: Enantioselectivity, Structure–Activity Relationships, and Mechanism” (Chemmedchem, 2025)
